Data taken from patent publication US10000771B2, “Nuclear targeting sequences” (Yeda Research and Development Co. Ltd., priority 2007, dated 2018).
Ends that are not written are not given here. 2GFP = dimer of GFP proteins

Tests used:
Assay type in all cases: cell-based
COS7 cells [1] = test: Subcellular fractionation of 2GFP chimeras
Description: FIG. 9A is an autoradiograph illustrating the subcellular fractionation of transfected SPS, APA, and EPE peptides fused to a 2GFP in COS7 cells. Western blot analysis of aliquots of the fractions were stained with anti GFP Ab to detect the different chimaras, and with anti tubulin and anti c-Jun Abs as markers for the cytoplasmic and nuclear fractions respectively.
(§1) Cellular Fractionation: Transfected COS7 cells were starved (0.1% FBS) for 16 h, after which they were washed with ice-cold PBS, suspended in ice-cold buffer H, and centrifuged (12,000×g, 5 min). Then, the nuclear and cytosolic fractions were isolated as described [H. Rubinfeld, T. Hanoch, R. Seger, J. Biol. Chem. 274, 30349 (1999)]. Briefly, the pellets were suspended in 0.1% NP-40 followed by centrifugation (12,000×g, 5 min). The supernatant, containing the cytosolic fraction, was boiled in sample buffer. The pellet was suspended in extraction buffer (420 mM Nacl, 50 mM β-glycerophosphate, 0.5 mM Na3VO4, 1.5 mM MgCl2, 0.2 mM EDTA, 1 mM DTT, 25% glycerol), incubate on ice for 10 min, sonicated (50 W, 2×7 sec), and centrifuged (12,000×g, 5 min). The supernatant, containing the nuclear fraction, was subjected to Western blot.

CHO cells [2] = test: Fluorescence microscopy of 2GFP chimeras (subcellular localization); conditions: 24 hr post transfection, serum-starved
Description: FIGS. 8A-8H are photomicrographs illustrating that SPS, APA, and EPE peptides fused to a 2GFP chimera modify its subcellular localization. CHO cells were grown on cover slips and transfected with 19 amino acid from the kinase insert domain of ERK2 including the SPS region (GFP-SPS) fused to a 2GFP chimera and with the same chimeras with substitution of the Ser to Ala (GFP-APA) or substitution to Glu (GFP-EPE). Twenty-four hr later, the cells were serum-starved for 16 hr, fixed, stained with DAPI and visualized by a fluorescence microscope.
(§2) Immunofluorescence Microscopy. Cells were fixed (30 min in 3% paraformaldehyde in PBS or 10 min with ice-cold methanol), followed by 5-min permeabilization with 0.2% Triton X-100 in PBS (23° C.). The fixed cells were sequentially incubated with the appropriate Abs (45 min) followed by rhodamine-conjugated secondary Abs (45 min) and DAPI. Slides were visualized using a fluorescence microscope (Nikon, Japan) at 400× magnifications.
To validate the general importance of the SPS domain, a 19 amino acid sequence surroundings the SPS or the APA and EPE mutants was fused to a dimer of GFP proteins (2GFP). Cellular distribution of the chimeras was detected in CHO cells 24 hr post transfection of the GFP constructs.

endogenous ERKs = test: Effect of 2GFP chimeras on nuclear translocation of endogenous ERKs; conditions: CHO cells overexpressing the chimera, TPA 250 nM, 15 min
Description: FIGS. 10A-10X illustrate the effects of the 2GFP chimeras on the nuclear translocation of endogenous ERKs. CHO cells overexpressing 2GFP, 2GFP-SPS, 2GFP-APA and 2GFP-EPE were serum starved and treated with or without TPA (250 nM, 15 min). Subsequently, the cells were fixed and stain with anti-ERK2 (C-14) Ab and with DAPI.
as §2

COS7 cells [3] = test: Subcellular fractionation of GFP-ERK2 constructs; conditions: 48 hr after transfection, serum-starved
Description: FIG. 6 is an autoradiograph illustrating the subcellular fractionation of WT-GFP-ERK2 (WT), APA-GFP-ERK2 (APA), or EPE-GFP-ERK2 (EPE). COS7 cells were grown in 10 cm plates and transfected with the above ERK2 constructs. Twenty-four hr after transfection the cells were serum-starved for 16 hr and subjected to cellular fractionation as described under materials and Methods. Western blot analysis of aliquots of the fractions were stained with anti GFP Ab to detect the ERK2 and its mutant, and with anti tubulin and anti c-Jun Abs as markers for the cytoplasmic and nuclear fractions respectively.
as §1, with “The supernatant, containing the nuclear fraction, was subjected to Western blot.” left out

CHO cells [4] = test: Fluorescence microscopy of ERK2 constructs (subcellular localization)
Description: FIGS. 1A-1R are photomicrographs illustrating the role of SPS in the non-regulated accumulation of ERK2 in the nucleus. CHO (FIGS. 1A-F and 1M-R) or COS7 cells (FIGS. 1G-L) were grown on cover slips and transfected with WT-ERK2, or the mutants 244-6A and Δ244-6. Twenty-four hr following transfection, the cells were serum-starved (16 hr), fixed, stained with DAPI and visualized using a fluorescent microscope.
FIGS. 2A-2X are photomicrographs illustrating the role of SPS in the stimulated nuclear translocation of ERK2. CHO cells were grown on cover slips and co-transfected with HA-MEK1 together with either WT-ERK2, 244-6A, or Δ244-6. Twenty-four hr after transfection, the cells were serum starved for 16 hours, treated with TPA (250 nM, 15 min), except in WT-10 where the cells were treated with 10 nM TPA for 15 min. After treatments the cells were fixed and stained with either anti-HA Ab or DAPI.
FIGS. 5A-5F are photomicrographs illustrating that mutating the Ser residues in the SPS to Glu induces the nuclear accumulation of ERK2. CHO cells were grown on cover slips and transfected with WT-GFP-ERK2 (WT), APA-GFP-ERK2 (APA), or EPE-GFP-ERK2 (EPE). […]
Immunofluorescence Microscopy. […] Slides were visualized using a fluorescence microscope (Nikon, Japan) at 400× magnifications. […]

TEY motif of ERK2 = test: TEY phosphorylation by Western blot with anti pTEY-ERK; conditions: COS7 cells, following EGF stimulation
Description: FIG. […] ERK2 phosphorylation was detected by Western blot analysis using anti-phosphoTEY-ERK (αpTEY), and anti ERK Abs (αgERK).
Western Blotting: Cell extract was collected as described above, and aliquots from each sample (20 μg) were separated by 10% SDS-PAGE followed by Western blotting with the appropriate antibodies. The blots were developed with alkaline phosphatase or horseradish peroxidase-conjugated anti-mouse’, anti-rabbit and anti-goat Fab Abs.

Row | Substance | localized in the nucleus (COS7 cells [1]) | cellular distribution (CHO cells [2]) | inhibition of TPA-induced translocation of endogenous ERKs (endogenous ERKs) | localized in the nucleus (COS7 cells [3]) | localization upon TPA stimulation (CHO cells [4]; CHO cells cotransfected with MEK1, TPA 250 nM) | localization at equivalent TEY phosphorylation levels (CHO cells [4]; CHO cells cotransfected with MEK1, TPA 10 nM for WT-ERK2 and 250 nM for the mutants) | time of peak TEY phosphorylation (TEY motif of ERK2)
1 | 2GFP-SPS: 2GFP with the 19 amino acid stretch containing the SPS of ERK2 (SEQ ID NO: 6) fused to its C terminus (2GFP-LDQLNHILGILGSPSQEDL) | 15% | localized throughout the cell | inhibited | – | – | – | –
2 | WT-ERK2: wild-type ERK2 fused to GFP, prepared in pEGFP C1 [reference compound] | – | – | – | about 75% | translocated into the nucleus upon TPA stimulation | localized to the nucleus | 5 min
